One assay has as its target T1, PLA2 Δ62-66 (Sus scrofa, UniProt P00592, DEL84-88).
T1 construct: made in house
Briefly: Bile salt binding by Trp emission, Δ62-66 PLA2. On the set-up: species or system pig. Here is the method: (§1) Fluorescence emission spectrum or time course of the intensity change from tryptophan or the resonance energy transfer probe TMA-DPH were measured in the ratio mode on SLM-Aminco AB2 in a 1 cm cuvette [31, 32] in 1.6 ml stirred buffer containing 1 or 2 μM PLA2 in 10 mM Tris, 5 mM CaCl2 and 20 mM NaCl at pH 8.0 and 24° C. The slit-widths were 4 nm with excitation at 280.
(§2) As shown in [45], the binding of decylsulfate to the R site is accompanied by a modest increase in the emission intensity from Trp-3. […] As summarized in Table 2, the value of KEB depends on the position of Trp, although Hill coefficient remains 1. […] Note that KEB for the EB complex of ΔPLA2 is about 7-fold larger than that for PLA2.

The target of assay [1] is T2, human pancreatic IB PLA2 (Homo sapiens, UniProt P04054).
T2 construct: gift of Dr. Suren Tatulian (Orlando, Fla.)
T2 sequence (P04054 23-148): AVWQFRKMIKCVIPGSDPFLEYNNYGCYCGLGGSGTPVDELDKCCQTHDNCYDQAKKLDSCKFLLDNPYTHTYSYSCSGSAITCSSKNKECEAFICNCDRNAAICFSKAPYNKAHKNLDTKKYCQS
Kind of assay: Rate-lowering of hydrolysis of DMPC + 0.05 mole fraction cholate vesicles by human pancreatic PLA2. In kind it is biochemical. The text has this: Independent support for selective binding of the rate lowering compounds to a regulatory site on PLA2 comes from the rate-lowering effect of such compounds on the hydrolysis of DMPC vesicles containing 0.05 mole fraction cholate.
Scores of other compounds in guggul were not active.

Assay [2] deals with T3, PLA2 (Sus scrofa, UniProt P00592).
T3 construct: made in house
T3 sequence (P00592 23-146): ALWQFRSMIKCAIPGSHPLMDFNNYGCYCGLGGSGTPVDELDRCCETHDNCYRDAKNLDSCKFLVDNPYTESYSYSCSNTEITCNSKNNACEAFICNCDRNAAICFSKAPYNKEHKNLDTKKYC
Briefly: Isothermal calorimetric titration of PLA2 with bile salt. Format: binding, pig. The settings on record: ITC. Here is the method:
ITC titration of PLA2 with <1 mM (below the CMC) bile salt stock solution was carried out on the Microcal calorimeter (model VP-itc) with cell volume of 1.42 ml with stirring at 300 rpm. Successive injections were made every 5 min. Standard software was used for the peak integration. The heat change with the internal calibration associated with the dilution of the titrant in the […] was subtracted from the heat change obtained by the injection of the bile salt in the presence of 8.5 μM PLA2. The net heat change per injection in the presence of PLA2 was integrated to obtain the total heat change as a function of the total added amphiphile concentration.

In a further assay the target is T4, PLA2 (3W)(WT) (Sus scrofa, UniProt P00592).
T4 construct: made in house
T4 sequence (P00592 23-146): as above
Kind of assay: Bile salt binding by Trp emission, (3W)(WT) PLA2. On the set-up: species or system pig. The settings on record: read-out: KEB. As to the method: as §1, §2

Another assay addresses T5, PLA2 K56W/W3F (Sus scrofa, UniProt P00592, K78W/W25F).
T5 construct: made in house
Kind of assay: Bile salt binding by Trp emission, K56W/W3F PLA2. On the set-up: species or system pig. The settings on record: read-out: KEB. Here is the method: as §1, §2

A further assay concerns the target T6, PLA2 R6W/W3F (Sus scrofa, UniProt P00592, R28W/W25F).
T6 construct: made in house
Briefly: Bile salt binding by Trp emission, R6W/W3F PLA2. On the set-up: species or system pig. The settings on record: read-out: KEB. As to the method:
as §1, §2

In the next assay the target is T7, PLA2 L19W/W3F (Sus scrofa, UniProt P00592, L41W/W25F).
T7 construct: made in house
T7 sequence (P00592 23-146 W25F/L41W): as the sequence (P00592 23-146) above, with W3F, L19W counted along it
Briefly: Bile salt binding by Trp emission, L19W/W3F PLA2. On the set-up: species or system pig. As to conditions: read-out: KEB. As to the method:
as §1, §2

Another assay addresses T8, PLA2 K87W/W3F (Sus scrofa, UniProt P00592, K109W/W25F).
T8 construct: made in house
Kind of assay: Bile salt binding by Trp emission, K87W/W3F PLA2. Also on record: species or system pig. The settings on record: read-out: KEB. As to the method:
as §1, §2

In assay [3] the target is T2, human pancreatic IB PLA2. Kind of assay: Hydrolysis of DMPC vesicles by human IB PLA2 with added bile salt. The settings on record: 1 mM DMPC. Format: biochemical. As to the method: (§3) Aqueous dispersion of phospholipid was sonicated in a bath type sonicator. Virtually transparent suspension was annealed for at least 4 hours at room temperature before use. Reaction progress for the PLA2 catalyzed hydrolysis of sonicated DMPC (1 mM) vesicles was measured by pH-stat titration (Radiometer) with 1 mM 2-aminopropanediol in 4 ml reaction buffer containing 5 mM CaCl2 for DMPC (or 0.5 mM for DMPM), 1 mM NaCl, and 0.1 mM EDTA at pH 8.0 and 24° C. in the nitrogen purged closed atmosphere. Reaction was initiated by adding 0.1 μg enzyme in 1-10 μl solution. The pH stat method was also used for monitoring the rate of hydrolysis of DMPM (0.4 mM) vesicles in the presence of polymyxin [27-29], or of the mixed-micelles of POPC with bile salts in 1:2 ratio [13, 30].

Another assay deals with PLA2 K63W/W3F (Sus scrofa, UniProt P00592, W25F/). Briefly: Bile salt binding by Trp emission, K63W/W3F PLA2. On the set-up: species or system pig. The settings on record: read-out: KEB. Here is the method:
as §1, §2

A further assay deals with T9, PLA2 L2W/W3F (Sus scrofa, UniProt P00592, L24W/W25F).
T9 construct: made in house
T9 sequence (P00592 23-146 L24W/W25F): as the sequence (P00592 23-146) above, with L2W, W3F counted along it
Briefly: Bile salt binding by Trp emission, L2W/W3F PLA2. On the set-up: species or system pig. The settings on record: read-out: KEB. As to the method: as §1, §2

The target in assay [4] is T3, PLA2. Kind of assay: PLA2 catalyzed hydrolysis of mixed micelles of POPC with bile salts. Format: biochemical, pig. The settings on record: 1 mM POPC, 0.7 mole fraction bile salt. Here is the method: as §3
Another assay addresses PLA2 K10M (Sus scrofa, UniProt P00592, K32M). Briefly: Bile salt binding by Trp emission, K10M PLA2. Also on record: species or system pig. As to conditions: read-out: KEB. As to the method:
as §1, §2

The target of the next assay is T10, PLA2 M20W/W3F (Sus scrofa, UniProt P00592, M42W/W25F).
T10 construct: made in house
T10 sequence (P00592 23-146 W25F/M42W): as the sequence (P00592 23-146) above, with W3F, M20W counted along it
Kind of assay: Bile salt binding by Trp emission, M20W/W3F PLA2. The settings on record: read-out: KEB. On the set-up: species or system pig. Here is the method:
as §1, §2

For a further assay, the target named is T11, PLA2 N117W (Sus scrofa, UniProt P00592, N139W).
T11 construct: made in house
T11 sequence (P00592 23-146 N139W): as the sequence (P00592 23-146) above, with N117W counted along it
Kind of assay: Bile salt binding by Trp emission, N117W PLA2. Also on record: species or system pig. The settings on record: read-out: KEB. As to the method: as §1, §2

The structures appear in SMILES notation.

T1 sequence (P00592 with tags, fused parts or gaps DEL84-88): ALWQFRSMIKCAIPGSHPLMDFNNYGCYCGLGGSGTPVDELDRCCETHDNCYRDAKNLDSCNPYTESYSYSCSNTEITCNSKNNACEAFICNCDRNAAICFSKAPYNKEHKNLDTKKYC
T8 sequence (P00592 23-146 W25F/K109W): as the sequence (P00592 23-146) above, with W3F, K87W counted along it
T6 sequence (P00592 23-146 W25F/R28W): as the sequence (P00592 23-146) above, with W3F, R6W counted along it
T5 sequence (P00592 23-146 W25F/K78W): as the sequence (P00592 23-146) above, with W3F, K56W counted along it
PLA2 K63W/W3F, sequence (P00592 whole entry W25F/F85W, form open): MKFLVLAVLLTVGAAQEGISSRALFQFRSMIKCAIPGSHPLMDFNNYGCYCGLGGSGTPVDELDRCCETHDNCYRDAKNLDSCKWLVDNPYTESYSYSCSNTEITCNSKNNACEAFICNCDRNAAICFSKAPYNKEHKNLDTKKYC
PLA2 K10M, sequence (P00592 whole entry K32M): as the sequence (P00592 whole entry W25F/F85W, form open) above, with F25W, K32M, W85F counted along it

Regarding `C[C@H](CCC(=O)NCCS(=O)(=O)O)[C@H]1CC[C@H]2[C@@H]3[C@H](O)C[C@@H]4C[C@H](O)CC[C@]4(C)[C@H]3CC[C@]12C` [TCDOC, taurochenodeoxycholate], the Kd was 41 µM on PLA2 Δ62-66 (Δ62-66, read-out: KEB); 9 µM at PLA2 [2] (KEB, 8.5 μM PLA2); 6 µM at PLA2 (3W)(WT); 21 µM at PLA2 K56W/W3F; 50 µM at PLA2 R6W/W3F; 3 µM on PLA2 L19W/W3F. For the same compound, the Kd on PLA2 K87W/W3F amounted to 200 µM; at PLA2 K63W/W3F it was 3 µM; on PLA2 L2W/W3F, 18 µM; on PLA2 K10M, 8 µM; at PLA2 M20W/W3F, 75 µM; on PLA2 N117W, 7 µM. In addition, on PLA2 Δ62-66 (ΔPLA2 versus PLA2), the “KEB for the EB complex of ΔPLA2 relative to PLA2” value is “about 7 fold”. Further, the “Relative Rate-lowering (%) Activity, hPLA2” value on human pancreatic IB PLA2 [1] (0.03 mole fraction, DMPC + 0.05 mole fraction cholate) was 90%. Moreover, the “relative effectiveness in lowering the rate of hydrolysis by human PLA2” value at human pancreatic IB PLA2 [1] (DMPC vesicles containing 0.05 mole fraction cholate, FIG. 5B) is given as “more effective than ezetimibe”. Also, the S at PLA2 [2] (8.5 μM PLA2) amounted to 3.5 cal/mole/deg. Besides, at PLA2 [2] (single hyperbola fit), the Hill coefficient is recorded as 1. Also, the “effect on rate of hydrolysis of DMPC vesicles by human pancreatic IB PLA2” value at human pancreatic IB PLA2 [3] was “virtually no rate increase”. The “initial rate of hydrolysis of POPC in mixed micelles” value on PLA2 [4] turned out to be 15 s⁻¹.
